Patent US9080197B2, “Equol level regulator” (priority 2005, dated 2015)

Tests used:
[1] = test system: feces of an equol producer (microorganisms having conversion ability to equol); assay: Effect of carbohydrates upon equol production in anaerobic culture of feces of an equol producer with daidzein; format: cell-based; details: carbohydrate 1%
Excerpt: The equol concentration regulating activity of a carbohydrate can be checked by taking feces from a human having ability to produce equol (equol producer), adding daidzein serving as a substrate for equol and a target carbohydrate to the feces thus taken, culturing the feces, determining the concentration of equol in the culture medium and fitting the determined equol concentration to the following equation in comparison with the concentration of equol in a culture medium containing no carbohydrate. Equal concentration regulating activity (%)=(equol concentration of a culture medium containing a target carbohydrate)/(equol concentration of a culture medium containing no carbohydrate)×100
Fresh feces of an equol producer were suspended in a dilute solution (10-fold by volume) containing 0.00255% of KH2PO4, 0.00255% of K2HPO4, 0.006% of NaCl, […] of (NH4)2SO4, 0.000255% of CaCl2, 0.000255% of MgSO4, 0.1% of a 0.1% resazurin solution, 2.2% of an 8% Na2CO3 solution and 0.05% of L-cysteine hydrochloride by use of glass beads (φ 3 mm) in anaerobic conditions and solid matter was removed by use of sterilized gauze. The solution was centrifuged at 8,000 rpm for 10 minutes. Precipitation was suspended in a dilute solution in the same amount thereof. The solution was stored in a freezer at −30° C. as it was.
The feces dilution solution was thawed and centrifuged again. Precipitation was resuspended in PY medium (100-fold by volume) containing 0.5% of peptone, 0.5% of trypticase peptone, 1% of yeast extract, 0.00005% of hemin, 0.0001% of vitamin K1, 0.05% of L-cysteine hydrochloride, 0.0006% of KH2PO4, 0.0006% of K2HPO4, 0.0012% of NaCl, 0.0006% of (NH4)2SO4, 0.00006% of CaCl2 and 0.00006% of MgSO4. At this time, adonitol, arabinose, cellobiose, erythritol, fructo-oligosaccharide, fructose, galactose, glucose, glycogen, inositol, […], lactitol, lactose, lactulose, maltose, mannitol, mannose, melezitose, melibiose, raffinose, rhamnose, ribose, sorbitol, sorbose, sucrose, trehalose, xylose, or galacto-oligosaccharide was added so as to obtain a final concentration of 1%. Simultaneously, a series of sample containing no carbohydrate was prepared. To the series of samples, daidzein was added so as to obtain a final concentration of 100 μM. Culture was performed in completely anaerobic conditions at 37° C. for 16 hours. Note that culture was performed independently in four series. From the culture solution obtained, daidzein and equol were extracted and subjected to HPLC analysis. Note that inositol used herein is myo-inositol manufactured by SIGMA and glycogen was one derived from oyster and manufactured by SIGMA. Trehalose is D(+) trehalose (α,α form) manufactured by SIGMA and galacto-oligosaccharide is TOS-S, which is a mixture of 4′galactosyl-lactose and 6′galactosyl-lactose, and manufactured by Yakult Pharmaceutical Industry Co., Ltd. Fructo-oligosaccharide is a mixture of 1-kestose, nystose and 1-fructosyl-D-nystose manufactured by Wako Pure Chemical Industries, Ltd.
Daidzein and equol were extracted by the following manner. To 500 μL of a culture solution, 250 μL of diethyl ether was added and sufficiently stirred. The solution mixture was centrifuged at 2,000 rpm for 10 minutes to obtain a diethyl ether layer. The remaining aqueous layer was subjected to diethyl ether extraction performed in the same manner. The ether layers obtained in the two extraction operations were combined, concentrated and dried under spray of nitrogen gas flow at 40° C. The dried product was dissolved in 250 μL of 80% methanol and filtrated through a filter to obtain a sample to be subjected to measurement.
Furthermore, HPLC was performed in the following conditions:
Daidzein and equol standard products were poured in the aforementioned conditions to form calibration curves, respectively. In this manner, daidzein and equol concentrations of the samples were determined. […]

[2] = rat, Non-Patent Document 5; cited from earlier work

For Inulin [reference compound], the “daidzein added to the medium remaining” value ([1]; 100 μM of daidzein added) was “mostly remained”, the “effect on daidzein-to-equol conversion rate in this test system” value [1] was “significantly decreases” and the equol production ([1]; daidzein 100 μM, 16 hours) was “not observed”. The “Equol concentration in medium” value ([1]; daidzein 100 μM, anaerobic, 37° C., 16 hours, no carbohydrate 18.1 μM) was 0.0 µM, the “Equol concentration regulating activity” value ([1]; relative to medium containing no carbohydrate (=100%), daidzein 100 μM, 16 hours) was 0.0% and the “equol concentration in the serum” value [2] was “reduces”.
